Assay results published in US20120309676A1, “Lantibiotic Salts” (priority 2010, published 2012).
Counter-ions that a name gives are not always drawn. Like-named read-outs stand apart in the source and are kept apart here.

Key:
[1] = test system: Methicillin-resistant Staph. epidermidis; experiment: MIC susceptibility testing, methicillin-resistant Staph. epidermidis; type: cell-based, S. epidermidis
Description: (§1) Susceptibility testing with the exception of Streptococcus pneumoniae was performed by two-fold serial dilutions in Mueller Hinton Broth supplemented with 50 μg/mL Ca^2+. Susceptibility testing of S. pneumoniae was performed by two-fold serial dilutions in Brain-Heart-Infusion Broth supplemented with 50 μg/mL Ca^2+.
(§2) Modal values from up to 6 determinations

[2] = test system: Vancomycin sensitive enterococci, E. faecalis; experiment: MIC susceptibility testing, vancomycin sensitive enterococci (E. faecalis); type: cell-based
Description: as §1, §2

Streptococcus pneumoniae = experiment: MIC susceptibility testing, S. pneumoniae (Brain-Heart-Infusion Broth); type: cell-based; details: S. pneumoniae R33
Description: as §1, §2

[3] = test system: Methicillin-sensitive Staph. epidermidis; experiment: MIC susceptibility testing, methicillin-sensitive Staph. epidermidis; type: cell-based, S. epidermidis
Description: as §1, §2

[4] = test system: Staphylococcus aureus methicillin resistant ATCC 33591; experiment: Mouse bacteraemia model, SC dosing; type: in vivo
Description: Groups of 6 male CD-1 (Crl.) derived mice weighing 24±2 g were used. Mice were inoculated intraperitoneally (IP) with an LD90-100 of Staphylococcus aureus methicillin resistant ATCC 33591 (1.1×10^7 CFU/mouse) in 0.5 mL of BHI broth containing 5% mucin. Example 1 and vancomycin were dissolved in 15% HPbetaCD/4.4% glucose/0.5 mM KH2PO4, pH 5.0 and doses of 1, 3, 5, 10 and 20 mg/Kg were administered subcutaneously (SC) to test animals at 0, 2 and 24 hour(s) after bacteria challenge. The dosing volume was 5 mL/Kg. Mortality was recorded once daily for 7 days (FIG. 1). The ED50 for each compound was determined by nonlinear regression.

MRSA = experiment: MIC susceptibility testing, MRSA; type: cell-based, Staphylococcus aureus
Description: as §1, §2

Aqueous solubility = type: physicochemical
From the text: Solubility as employed herein is used generically to refer to a distribution of a compound of formula (I) in a solvent (for example water, saline or an aqueous isotonic solution such as glucose) such that the formulation/composition resulting therefrom is substantially free of visible aggregates and for example is substantially transparent when viewed by the naked eye. Such a formulation would therefore include a whole range of formats which are suitable for infusion and/or injection such as solutions, suspensions, colloids and the like. […]

CC[C@H](C)[C@@H]1NC(=O)[C@@H]2NC(=O)[C@H](CC(C)C)NC(=O)[C@H](NC(=O)[C@@H]3CSC[C@@H](N)C(=O)N[C@@H](CO)C(=O)NCC(=O)N[C@@H](Cc4c[nH]c5ccccc45)C(=O)N[C@@H](C(C)C)C(=O)N3)[C@H](C)SC[C@H](NC(=O)[C@H](CCC(=O)O)NC1=O)C(=O)NCC(=O)N[C@H]1C(=O)N[C@@H](CC(C)C)C(=O)N[C@@H](C(C)C)C(=O)N[C@@H](CS[C@H]2C)C(=O)N[C@@H](C)C(=O)N[C@H](C(=O)NCc2cc(Cl)cc(Cl)c2)CS[C@H]1C [Example 1, Deoxyactagardine B (3,5-dichlorobenzylamine) monocarboxamide N-methyl glucamine salt]
8 to 16 µg/mL: MIC ([1]; S. epidermidis 7753921) | MIC ([1]; S. epidermidis GRL05013) | MIC ([1]; S. epidermidis GRL05014) | MIC ([1]; S. epidermidis GRL05015)
4 µg/mL: MIC ([1]; S. epidermidis 7765349) | MIC ([1]; S. epidermidis GRL05020) | MIC ([2]; E. faecalis GRL05023) | MIC ([2]; E. faecalis GRL05029) | MIC ([3]; S. epidermidis MF87) | MIC (MRSA; S. aureus 12232) | MIC (MRSA; S. aureus R31) | MIC (MRSA; S. aureus R33) | MIC (MRSA; S. aureus R34) | MIC (MRSA; S. aureus R36) | MIC (MRSA; S. aureus R37) | MIC (MRSA; S. aureus W74) | MIC (MRSA; S. aureus W97)
1.07 mg/kg: estimated ED50 ([4]; CD-1 mice, SC at 0, 2 and 24 h after challenge, mortality over 7 days, nonlinear regression)
at least 50%: increase in survival rate ([4]; 3, 5, 10 and 20 mg/Kg×3, SC)
6.87* mg/mL: Solubility (Aqueous solubility; aqueous, * = calculations made from two determinations, listed as N-methyl-D-glucamine salt)
8 µg/mL: MIC ([1]; S. epidermidis 7755298) | MIC ([1]; S. epidermidis GRL05012) | MIC ([2]; E. faecalis GRL05026) | MIC ([3]; S. epidermidis GRL05001) | MIC ([3]; S. epidermidis GRL05002) | MIC ([3]; S. epidermidis GRL05003) | MIC (MRSA; S. aureus W71)
<8 µg/mL: MIC ([2]; E. faecalis GRL05022) | MIC ([2]; E. faecalis GRL05024) | MIC ([2]; E. faecalis GRL05030)
100%: survival rate ([4]; 3 mg/Kg)
significant antimicrobial effect: antimicrobial effect against S. aureus (MRSA) in mice ([4]; 3, 5, 10 and 20 mg/Kg×3, SC)
16 µg/mL: MIC ([1]; S. epidermidis 7865688) | MIC ([1]; S. epidermidis GRL05011) | MIC ([1]; S. epidermidis GRL05017) | MIC ([1]; S. epidermidis GRL05019) | MIC ([3]; S. epidermidis 9AF) | MIC ([3]; S. epidermidis C12) | MIC ([3]; S. epidermidis C16) | MIC ([3]; S. epidermidis GRL05009)
8.43: pH of saturated solution (Aqueous solubility; aqueous saturated solution, listed as N-methyl-D-glucamine salt)
> 10000 µg/mL: Solubility (Aqueous solubility; water, salts of compound 1, read-out: solubility)
4 to 8 µg/mL: MIC ([1]; S. epidermidis GRL05016) | MIC ([2]; E. faecalis GRL05027) | MIC ([3]; S. epidermidis GRL05004) | MIC ([3]; S. epidermidis GRL05005) | MIC ([3]; S. epidermidis GRL05006) | MIC ([3]; S. epidermidis GRL05008) | MIC (MRSA; S. aureus R39) | MIC (MRSA; S. aureus R40) | MIC (MRSA; S. aureus W82) | MIC (MRSA; S. aureus W96) | MIC (MRSA; S. aureus W98) | MIC (MRSA; S. aureus W99)
<16 µg/mL: MIC ([1]; S. epidermidis 7864847) | MIC ([2]; E. faecalis 7791220) | MIC (Streptococcus pneumoniae) | MIC ([3]; S. epidermidis GRL05007) | MIC ([3]; S. epidermidis GRL05010)
<4 µg/mL: MIC ([2]; E. faecalis 7757400)
